Converted amounts (≈) assume the structure as drawn.

The nature of series [1]: Solubility in water at 37° C. (HPLC, calibration curve method). Format: physicochemical. The settings on record: shaken for 4 hr. The method, then:
The solubility of the obtained compounds in water at 37° C. was measured under the following conditions. An adequate amount of each sample was taken, water was added to each sample, and the mixture was shaken at 37° C. for 4 hr. The supernatant was filtered through a filter, and diluted with a mixed solution of TFA/acetonitrile/water=(0.05:30:70) as necessary to give a sample solution. The concentration (mg/ml) of the sample solution was measured by high performance liquid chromatography (HPLC) with a calibration curve method, and taken as the solubility in water at 37° C.
apparatus: HPLC System Class-VP (SHIMADZU Corporation)
detector: photodiode array detector
measurement wavelength range: 200-370 nm
column: Inertsil ODS-3V (4.6 mm9×150 mm)
column temperature: 40° C.
mobile phase: SOLUTION A 0.05% aqueous trifluoroacetic acid solution • SOLUTION B 0.05% trifluoroacetic acid-acetonitrile solution • A:B=70:30 (Isocratic Elution)

Series [2] can be described thus: Water adsorption measurement (DVS-1 water adsorption apparatus), index of hygroscopicity. It is filed as physicochemical. The note with it: relative humidity changed within 0% to 95%; amount of change based on the weight at relative humidity 0%. The method, then:
The water adsorption measurement, which becomes an index of hygroscopicity, was performed using a DVS-1 type water adsorption apparatus (manufactured by SMS) under the following conditions. Using a sample (about 6-12 mg), the relative humidity was changed within the relative humidity range of 0% to 95%. The weight change was recorded for each predetermined relative humidity, and converted to the amount of change (%) based on the weight at relative humidity 0%. […] As to this compound, the zero point was amended based on the moisture value of the sample measured by the Karl Fischer's method, and the weight change was converted to the amount of change (%).

In series [1], `CNC(=O)Cn1c(=O)n(C2CCN([C@@H]3Cc4cccc5cccc3c45)CC2)c2ccccc21` [Example 16, (R)-2-{3-[1-(acenaphthen-1-yl)piperidin-4-yl]-2,3-dihydro-2-oxo-benzimidazol-1-yl}-N-methylacetamide] yielded a solubility in water of 10 µg/mL (≈ 22.7 µM).

`CNC(=O)Cn1c(=O)n(C2CCN([C@@H]3Cc4cccc5cccc3c45)CC2)c2ccccc21` [Example 17, (R)-2-{3-[1-(acenaphthen-1-yl)piperidin-4-yl]-2,3-dihydro-2-oxo-benzimidazol-1-yl}-N-methylacetamide] yielded a solubility in water in series [1] of 10 µg/mL (≈ 22.7 µM).

Turning to `CNC(=O)Cn1c(=O)n(C2CCN([C@@H]3Cc4cccc5cccc3c45)CC2)c2ccccc21` [Example 10, (R)-2-{3-[1-(acenaphthen-1-yl)piperidin-4-yl]-2,3-dihydro-2-oxo-benzimidazol-1-yl}-N-methylacetamide], the “weight increase (water adsorption / moisture absorption)” value in series [2] is given as 1.3%. The compound also returned a solubility in water in series [1] of 300 µg/mL (≈ 681 µM).

For the compound `CNC(=O)Cn1c(=O)n(C2CCN([C@@H]3Cc4cccc5cccc3c45)CC2)c2ccccc21` [Example 2, (R)-2-{3-[1-(acenaphthen-1-yl)piperidin-4-yl]-2,3-dihydro-2-oxo-benzimidazol-1-yl}-N-methylacetamide], the “weight increase (water adsorption / moisture absorption)” value in series [2] was 0.2%.

On to `CNC(=O)Cn1c(=O)n(C2CCN([C@@H]3Cc4cccc5cccc3c45)CC2)c2ccccc21` [Example 6, (R)-2-{3-[1-(acenaphthen-1-yl)piperidin-4-yl]-2,3-dihydro-2-oxo-benzimidazol-1-yl}-N-methylacetamide], for which, in series [2], the “weight increase (water adsorption / moisture absorption)” value was 0.4%. In series [1], the solubility in water is greater than 2000 µg/mL.

Consider `CNC(=O)Cn1c(=O)n(C2CCN([C@@H]3Cc4cccc5cccc3c45)CC2)c2ccccc21` [Example 1, (R)-2-{3-[1-(acenaphthen-1-yl)piperidin-4-yl]-2,3-dihydro-2-oxo-benzimidazol-1-yl}-N-methylacetamide], for which, in series [2], the “weight increase (water adsorption / moisture absorption)” value is reported as 0.2%. In addition, the solubility in water in series [1] was greater than 2000 µg/mL.

Take `CNC(=O)Cn1c(=O)n(C2CCN([C@@H]3Cc4cccc5cccc3c45)CC2)c2ccccc21` [Example 8, (R)-2-{3-[1-(acenaphthen-1-yl)piperidin-4-yl]-2,3-dihydro-2-oxo-benzimidazol-1-yl}-N-methylacetamide]: the “weight increase (water adsorption / moisture absorption)” value in series [2] was 2.0%.

Source of the values: patent publication US8471032B2, “Benzimidazole compound in crystal form and salt thereof” (Mitsubishi Tanabe Pharma Corporation, priority 2008, dated 2013).
